Source: PubChem BioAssay AID256 (DTP/NCI, 2004)
Toxic doses and inconclusive results are not listed. How the source made its calls: active means survival T/C of 150% or more; inactive means T/C below 125% in these data. Non-standard residues stand in square brackets, D forms with d. Residues, ends and D or L forms follow the SMILES beside them. ξ: configuration not given here. *: point of attachment. ξW = NC(Cc1c[nH]c2ccccc12)C(=O)O; Cbz = O=C(OCc1ccccc1)*

Tested on: CD2F1 mice, L1210 leukemia ip, survival T/C
Test: NCI In Vivo Anticancer Drug Screen. Data for tumor model L1210 Leukemia (intraperitoneal) in CD2F1 (CDF1) mice
Conditions: higher = longer survival
How it was run: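 Each value reflects a quotient of treated over vehicle control outcomes in mice with a transplanted tumor.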

[1] = endpoint: mean survival time, dose: 100.0 mg/kg/injection, schedule: Q01DX009 (ip), vehicle: saline with Tween-80
[2] = endpoint: mean survival time, dose: 100.0 mg/kg/injection, schedule: Q01DX009 (ip), vehicle: saline
[3] = endpoint: mean survival time, dose: 200.0 mg/kg/injection, schedule: Q01DX009 (ip), vehicle: saline with Tween-80
[4] = endpoint: mean survival time, dose: 200.0 mg/kg/injection, schedule: Q01DX009 (ip), vehicle: saline
[5] = endpoint: mean survival time, dose: 400.0 mg/kg/injection, schedule: Q01DX009 (ip), vehicle: saline
[6] = endpoint: mean survival time, dose: 400.0 mg/kg/injection, schedule: Q01DX009 (ip), vehicle: saline with Tween-80
[7] = endpoint: mean survival time, dose: 100.0 mg/kg/injection, schedule: Q01DX001 (ip), vehicle: saline
[8] = endpoint: mean survival time, dose: 200.0 mg/kg/injection, schedule: Q01DX001 (ip), vehicle: saline
[9] = endpoint: mean survival time, dose: 400.0 mg/kg/injection, schedule: Q01DX001 (ip), vehicle: saline
[10] = endpoint: mean survival time, dose: 100.0 mg/kg/injection, schedule: Q04DX003 (ip), vehicle: saline with Tween-80
[11] = endpoint: mean survival time, dose: 200.0 mg/kg/injection, schedule: Q04DX003 (ip), vehicle: saline with Tween-80

Measured: T/C

NCCCNCCSP(=O)(O)O
inactive: endpoint: mean survival time, dose: 12.5 mg/kg/injection, schedule: Q01DX009 (ip), vehicle: saline with Tween-80 106 % of control | endpoint: mean survival time, dose: 12.5 mg/kg/injection, schedule: Q01DX009 (ip), vehicle: saline 95 % of control | endpoint: mean survival time, dose: 25.0 mg/kg/injection, schedule: Q01DX009 (ip), vehicle: saline with Tween-80 101 % of control | endpoint: mean survival time, dose: 25.0 mg/kg/injection, schedule: Q01DX009 (ip), vehicle: saline 106 % of control | endpoint: mean survival time, dose: 50.0 mg/kg/injection, schedule: Q01DX009 (ip), vehicle: saline with Tween-80 102 % of control | endpoint: mean survival time, dose: 50.0 mg/kg/injection, schedule: Q01DX009 (ip), vehicle: saline 101 % of control | [1] 101 % of control | [2] 96 % of control | [3] 104 % of control | [4] 106 % of control | [5] 93 % of control

[Cl][Pt+2][Cl].[NH-]C1C(O)OC(CO)C(O)C1O.[NH-]C1C(O)OC(CO)C(O)C1O (configuration not stated)
inactive: endpoint: median survival time, dose: 2.5 mg/kg/injection, schedule: Q04DX003 (ip), vehicle: saline 105 % of control | endpoint: median survival time, dose: 5.0 mg/kg/injection, schedule: Q04DX003 (ip), vehicle: saline 110 % of control | endpoint: median survival time, dose: 10.0 mg/kg/injection, schedule: Q04DX003 (ip), vehicle: saline 93 % of control | endpoint: median survival time, dose: 20.0 mg/kg/injection, schedule: Q04DX003 (ip), vehicle: saline 100 % of control | endpoint: median survival time, dose: 25.0 mg/kg/injection, schedule: Q04DX003 (ip), vehicle: saline 103 % of control | endpoint: median survival time, dose: 50.0 mg/kg/injection, schedule: Q04DX003 (ip), vehicle: saline 105 % of control | endpoint: median survival time, dose: 100.0 mg/kg/injection, schedule: Q04DX003 (ip), vehicle: saline 103 % of control | endpoint: median survival time, dose: 200.0 mg/kg/injection, schedule: Q04DX003 (ip), vehicle: saline 101 % of control

CCSC(C(O)C(O)C(O)CO)n1cc(F)c(=O)[nH]c1=O (configuration not stated)
inactive: endpoint: mean survival time, dose: 12.5 mg/kg/injection, schedule: Q01DX005 (ip), vehicle: water 104 % of control | endpoint: mean survival time, dose: 25.0 mg/kg/injection, schedule: Q01DX005 (ip), vehicle: water 105 % of control | endpoint: mean survival time, dose: 50.0 mg/kg/injection, schedule: Q01DX005 (ip), vehicle: water 110 % of control | endpoint: mean survival time, dose: 100.0 mg/kg/injection, schedule: Q01DX005 (ip), vehicle: water 105 % of control | endpoint: mean survival time, dose: 200.0 mg/kg/injection, schedule: Q01DX005 (ip), vehicle: water 104 % of control

CCC[CH2][Pb]([CH2]CCC)([CH2]CCC)[O]C(C)=O
inactive: endpoint: mean survival time, dose: 2.5 mg/kg/injection, schedule: Q01DX001 (ip), vehicle: other 96 % of control | endpoint: mean survival time, dose: 5.0 mg/kg/injection, schedule: Q01DX001 (ip), vehicle: other 115 % of control | endpoint: mean survival time, dose: 10.0 mg/kg/injection, schedule: Q01DX001 (ip), vehicle: other 93 % of control | endpoint: mean survival time, dose: 25.0 mg/kg/injection, schedule: Q04DX003 (ip), vehicle: saline with Tween-80 95 % of control | endpoint: mean survival time, dose: 50.0 mg/kg/injection, schedule: Q04DX003 (ip), vehicle: saline with Tween-80 87 % of control

CC(C)(C)NC(=O)CCC(CC(=O)NC(C)(C)C)C1([N+](=O)[O-])CCCCC1 (configuration not stated)
inactive: [1] 92 % of control | [3] 86 % of control

CC(=O)OCC1OC(Oc2ccccc2)C(OC(C)=O)C(OC(C)=O)C1OC(C)=O (configuration not stated)
inactive: endpoint: median survival time, dose: 50.0 mg/kg/injection, schedule: Q04DX002 (ip), vehicle: saline with Tween-80 100 % of control | endpoint: median survival time, dose: 100.0 mg/kg/injection, schedule: Q04DX002 (ip), vehicle: saline with Tween-80 100 % of control | endpoint: median survival time, dose: 200.0 mg/kg/injection, schedule: Q04DX002 (ip), vehicle: saline with Tween-80 111 % of control | endpoint: median survival time, dose: 400.0 mg/kg/injection, schedule: Q04DX002 (ip), vehicle: saline with Tween-80 88 % of control

CCOC(=O)C(=CN1CCCCC1)C(=O)OCC
inactive: [1] 92 % of control | [3] 94 % of control | [6] 96 % of control

CC(=O)NCN(C)N=O
inactive: endpoint: mean survival time, dose: 100.0 mg/kg/injection, schedule: Q04DX002 (ip), vehicle: saline 91 % of control | endpoint: mean survival time, dose: 200.0 mg/kg/injection, schedule: Q04DX002 (ip), vehicle: saline 91 % of control | endpoint: mean survival time, dose: 400.0 mg/kg/injection, schedule: Q04DX002 (ip), vehicle: saline 91 % of control

CC(O)CN(C)C (configuration not stated)
inactive: [7] 98 % of control | [8] 103 % of control | [9] 103 % of control

CN(C)CCC(=O)c1cccc(O)c1
inactive: endpoint: mean survival time, dose: 100.0 mg/kg/injection, schedule: Q04DX002 (ip), vehicle: saline with Tween-80 104 % of control | endpoint: mean survival time, dose: 200.0 mg/kg/injection, schedule: Q04DX002 (ip), vehicle: saline with Tween-80 101 % of control

NC(=O)CNC(=O)C(Cc1c[nH]c2ccccc12)NC(=O)OCc1ccccc1 (configuration not stated) (Cbz-[ξW]-Gly-NH2)
inactive: endpoint: mean survival time, dose: 75.0 mg/kg/injection, schedule: Q04DX003 (ip), vehicle: saline 93 % of control | endpoint: mean survival time, dose: 150.0 mg/kg/injection, schedule: Q04DX003 (ip), vehicle: saline 97 % of control | endpoint: mean survival time, dose: 300.0 mg/kg/injection, schedule: Q04DX003 (ip), vehicle: saline 98 % of control

O=[N+]([O-])c1ccc(CSCc2ccc([N+](=O)[O-])cc2)cc1
inactive: endpoint: mean survival time, dose: 50.0 mg/kg/injection, schedule: Q04DX003 (ip), vehicle: Klucel (hydroxypropylcellulose) (HPC) 98 % of control | endpoint: mean survival time, dose: 100.0 mg/kg/injection, schedule: Q04DX003 (ip), vehicle: Klucel (hydroxypropylcellulose) (HPC) 92 % of control | endpoint: mean survival time, dose: 200.0 mg/kg/injection, schedule: Q04DX003 (ip), vehicle: Klucel (hydroxypropylcellulose) (HPC) 97 % of control

CC(=O)Nc1ccc2c(c1)C(=O)c1ccccc1-2
inactive: endpoint: mean survival time, dose: 50.0 mg/kg/injection, schedule: Q01DX001 (ip), vehicle: saline 104 % of control | [7] 101 % of control | [2] 106 % of control | endpoint: mean survival time, dose: 100.0 mg/kg/injection, schedule: Q04DX003 (ip), vehicle: saline 87 % of control | [8] 95 % of control | [4] 96 % of control | endpoint: mean survival time, dose: 200.0 mg/kg/injection, schedule: Q04DX003 (ip), vehicle: saline 94 % of control | [9] 87 % of control | [5] 95 % of control | endpoint: mean survival time, dose: 400.0 mg/kg/injection, schedule: Q04DX003 (ip), vehicle: saline 92 % of control

CCCCCCCCCCCCS(=O)(=O)O
inactive: [10] 119 % of control | [11] 119 % of control

CCOC(=O)C(=CNc1cc(C)ccn1)C(=O)OCC
inactive: [1] 109 % of control | [3] 98 % of control | [6] 94 % of control

CCCCC(C#N)C(=O)OCC (configuration not stated)
inactive: [10] 96 % of control | [11] 93 % of control

COc1ccc(N=N/N=c2\sc3cc(OC)ccc3n2C)cc1
inactive: endpoint: median survival time, dose: 7.5 mg/kg/injection, schedule: Q01DX005 (ip), vehicle: saline with Tween-80 100 % of control | endpoint: median survival time, dose: 15.0 mg/kg/injection, schedule: Q01DX005 (ip), vehicle: saline with Tween-80 105 % of control | endpoint: median survival time, dose: 30.0 mg/kg/injection, schedule: Q01DX005 (ip), vehicle: saline with Tween-80 108 % of control | endpoint: median survival time, dose: 42.5 mg/kg/injection, schedule: Q01DX005 (ip), vehicle: saline with Tween-80 102 % of control | endpoint: median survival time, dose: 60.0 mg/kg/injection, schedule: Q01DX005 (ip), vehicle: saline with Tween-80 105 % of control | endpoint: median survival time, dose: 85.0 mg/kg/injection, schedule: Q01DX005 (ip), vehicle: saline with Tween-80 102 % of control | endpoint: median survival time, dose: 120.0 mg/kg/injection, schedule: Q01DX005 (ip), vehicle: saline with Tween-80 104 % of control | endpoint: median survival time, dose: 170.0 mg/kg/injection, schedule: Q01DX005 (ip), vehicle: saline with Tween-80 100 % of control
